Experimental data: patent US9943482B2, “Milk-derived microvesicle compositions and related methods” (UNIVERSITY OF LOUISVILLE RESEARCH FOUNDATION, INC., priority 2013, dated 2018)
Read-outs that look alike come from different tables or passages of the source.

Tests used:
[1] = Loading of therapeutic agents into bovine milk-derived exosomes; format: physicochemical
Method: (§1) Several procedures were developed to load therapeutic agents onto the milk- or colostrum-derived exosomes. […] In one preferred embodiment, incubation of exosomes in PBS with test agents in the presence of 10% ethanol or 10% ethanol:acetonitrile (1:1) allowed for increased loading of therapeutic agents into the exosomes. The agents utilized in those studies included curcumin, withaferin A, demethoxycurcumin, delphinidin, cyanidin, a native mixture of (five) anthocyanidins from bilberry, punicalagin, and tanshinone II. The chemotherapeutic agents doxorubicin, paclitaxel, and docetaxel were also loaded in the exosomes. In this regard, it was observed that the exosomes accepted both hydrophobic (paclitaxel, docetaxel, curcumin, withaferin A, tanshinone II) and hydrophilic agents (berry anthocyanidins, punicalagin) with a loading efficiency of 4% to 65% with respect to exosomal proteins, as determined by measurement of the drug and exosomal protein contents (Tables IV and V). Sucrose density gradient ultracentrifugation confirmed the presence of drugs embedded in the exosomes (FIGS. 5-8). When tested for in vitro release using dialysis tubes against buffer containing the surfactant, Tween-80 [47] at 37° C., PAC and WFA were released time-dependently—20%, 43% and 70% PAC in 2, 6 and 19 h, and 12%, 40% and 58% WFA in 1, 4, and 24 h, respectively (FIGS. 10, 11A, and 11B).

[2] = In vitro release from loaded exosomes, dialysis tubes against buffer with Tween-80 at 37° C.; format: physicochemical
Method: as §1

[3] = 3 mg chemo. drug, 30 mg exosomal protein (Sample A)
[4] = 6 mg chemo. drug, 30 mg exosomal protein (Sample B)
[5] = 9 mg chemo. drug, 30 mg exosomal protein (Sample C)
[6] = 12 mg chemo. drug, 30 mg exosomal protein (Sample D)
[7] = 18 mg chemo. drug, 30 mg exosomal protein (Sample E)

| Structure (SMILES) | % Drug load [1, 3] | % Drug load [1, 4] | % Drug load [1, 5] | % Drug load [1, 6] | % Drug load [1, 7] | stability of agent extracted from residual material of the release study [2] | in vitro release from exosomes ([2]; 2 h) | in vitro release from exosomes ([2]; 6 h) | in vitro release from exosomes ([2]; 19 h) | % Drug load ([1]; 5 mg agent, 50 mg exosomal protein (Sample A)) | % Drug load ([1]; 10 mg agent, 50 mg exosomal protein (Sample B)) | % Drug load ([1]; 20 mg agent, 50 mg exosomal protein (Sample C)) | % Drug load ([1]; 25 mg agent, 50 mg exosomal protein (Sample D)) | in vitro release from exosomes ([2]; 1 h) | in vitro release from exosomes ([2]; 4 h) | in vitro release from exosomes ([2]; 24 h) | stability of agent extracted from residual material of the release study ([2]; HPLC or UV spectral analysis) |
| --- | --- | --- | --- | --- | --- | --- | --- | --- | --- | --- | --- | --- | --- | --- | --- | --- | --- |
| CC(=O)O[C@@]12CO[C@@H]1C[C@H](O)[C@@]1(C)C(=O)[C@H](O)C3=C(C)[C@@H](OC(=O)[C@H](O)[C@@H](NC(=O)OC(C)(C)C)c4ccccc4)C[C@@](O)([C@@H](OC(=O)c4ccccc4)[C@H]21)C3(C)C [Docetaxel, docetaxel] | 6.0% | 17.7% | 34.5% | 49.1% | 55.1% | stable during the workup | – | – | – | – | – | – | – | – | – | – | – |
| CC(=O)O[C@H]1C(=O)[C@@]2(C)[C@H]([C@H](OC(=O)c3ccccc3)[C@]3(O)C[C@H](OC(=O)[C@H](O)[C@@H](NC(=O)c4ccccc4)c4ccccc4)C(C)=C1C3(C)C)[C@]1(OC(C)=O)CO[C@@H]1C[C@@H]2O [Paclitaxel, paclitaxel] | 15.7% | 20.3% | 14.9% | 36.6% | 64.6% | stable during the workup | 20% | 43% | 70% | – | – | – | – | – | – | – | – |
| CC1=C(CO)C(=O)O[C@@H]([C@@H](C)[C@H]2CC[C@H]3[C@@H]4C[C@H]5O[C@]56[C@@H](O)C=CC(=O)[C@]6(C)[C@H]4CC[C@]23C)C1 [Withaferin A, withaferin A] | – | – | – | – | – | – | – | – | – | 3.8% | 8.6% | 31.4% | 44.8% | 12% | 40% | 58% | stable during the workup |
